Key:
p70S6K (T412E mutant) = p70S6K (T412E mutant) (Homo sapiens (Human), UniProt P23443, T412E); test: p70S6K enzyme assay; type: biochemical; settings: 24 μM ATP, 90 min at 25° C., Caliper mobility shift
Experimental: p70S6K inhibitor compounds were diluted and plated in 96 well plates. A reaction mixture including the following components were then added to the compound plate to initiate the enzyme reaction: p70S6K (3 nM, T412E mutant, Millipore) was mixed with 24 μM ATP in an assay buffer containing 100 mM Hepes (pH 7.5), 5 mM MgCl2, 1 mM DTT, 0.015% Brij and 1 μM of the substrate peptide FITC-AHA-[…]-OH (derived from the S6 ribosomal protein sequence, FITC=fluorescein isothiocyanate, AHA=6-aminohexanoic acid). The reaction was incubated for 90 min at 25° C., before the addition of 10 mM EDTA to stop the reaction. The proportion of substrate and product (phosphorylated) peptide was analyzed on a Caliper Life Sciences Lab Chip 3000, using a pressure of −1.4 psi, and upstream and downstream voltages of −3000 and −700, respectively. Product peaks were resolved before substrate peaks on the resulting chromatograms. To assess the inhibitory potential of the compounds, IC50 values were determined, as shown above.

His-AKT (Full Length) = His-AKT (Full Length) (Homo sapiens (Human), UniProt P31749); test: AKT/PKB kinase assay; type: biochemical; settings: 160 μM ATP, 90 min at 25° C., Caliper mobility shift
Experimental: In order to measure AKT inhibition in the Caliper Life Sciences LC3000, a TTP Mosquito liquid handling instrument was used to place 125 nl of the appropriate concentration of inhibitor in 100% DMSO (for a dose response curve calculation) into each well of a 384-well plate. To this reaction, the following components were added to a final volume of 12.5 μl: • 0.1 ng/μl His-AKT (Full Length) (Invitrogen, Part # P2999, Lot #641228C); • 160 μM ATP (Fluka, 02055); • 1 mM DTT (Sigma, D0632); • 1 mM MgCl2 (Sigma, M1028); • 1 μM substrate peptide (sequence FITC-AHA-[…]-NH2), synthesized by • Tufts Peptide Synthesis service; • 100 mM HEPES pH 7.5 (Calbiochem, 391338); and • 0.015% Brij-35 (Sigma, B4184).
The reaction was incubated for 90 min at 25° C., and then stopped by the addition of 70 μl of Stop buffer (100 mM HEPES pH 7.5, 0.015% Brij-35, 10 mM EDTA (Sigma, E7889)). The plate was read on a Caliper LC 3000 in an Off-Chip mobility shift assay format, using the following parameters for a 12-sipper chip: screening pressure −2.3 psi, upstream voltage −500, and downstream voltage −3000. These conditions cause unphosphorylated substrate and phosphorylated product peptide to resolve as separate peaks allowing direct measurement of percentage of conversion of substrate to product. The percent conversion was plotted against concentration of inhibitor to produce a sigmoidal dose response curve, from which an IC50 was calculated.

Sequence of His-AKT (Full Length) (P31749 whole entry): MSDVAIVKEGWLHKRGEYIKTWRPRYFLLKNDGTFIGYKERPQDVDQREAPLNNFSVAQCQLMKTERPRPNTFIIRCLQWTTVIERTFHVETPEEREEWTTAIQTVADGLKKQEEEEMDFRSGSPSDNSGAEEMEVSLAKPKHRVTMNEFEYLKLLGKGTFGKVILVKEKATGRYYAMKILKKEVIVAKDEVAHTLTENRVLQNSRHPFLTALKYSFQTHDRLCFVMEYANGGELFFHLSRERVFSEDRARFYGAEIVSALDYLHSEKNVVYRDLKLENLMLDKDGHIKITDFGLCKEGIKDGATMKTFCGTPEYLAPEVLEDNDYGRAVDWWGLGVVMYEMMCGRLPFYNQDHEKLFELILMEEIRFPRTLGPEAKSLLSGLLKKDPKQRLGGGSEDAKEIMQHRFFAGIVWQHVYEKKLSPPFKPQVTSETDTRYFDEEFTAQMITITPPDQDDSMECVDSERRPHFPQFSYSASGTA
Sequence of p70S6K (T412E mutant) (P23443 whole entry T412E): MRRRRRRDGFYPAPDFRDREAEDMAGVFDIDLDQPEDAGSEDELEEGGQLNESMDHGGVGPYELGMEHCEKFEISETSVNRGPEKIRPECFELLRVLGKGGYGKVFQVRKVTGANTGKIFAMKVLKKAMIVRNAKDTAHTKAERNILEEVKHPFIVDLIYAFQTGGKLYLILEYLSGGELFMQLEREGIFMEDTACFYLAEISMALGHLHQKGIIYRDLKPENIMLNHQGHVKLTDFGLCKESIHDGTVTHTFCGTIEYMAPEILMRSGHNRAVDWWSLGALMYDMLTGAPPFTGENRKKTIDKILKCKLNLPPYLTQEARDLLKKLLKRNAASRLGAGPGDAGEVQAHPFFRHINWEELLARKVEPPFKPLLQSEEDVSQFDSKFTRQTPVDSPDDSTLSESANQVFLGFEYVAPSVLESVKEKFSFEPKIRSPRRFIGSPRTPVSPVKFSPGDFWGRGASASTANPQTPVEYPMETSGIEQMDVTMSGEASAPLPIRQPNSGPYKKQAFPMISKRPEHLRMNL

Row | SMILES | IC50 (p70S6K (T412E mutant)) [nM] | IC50 (His-AKT (Full Length)) [nM]
1 | NC(=O)c1cccc2c(NCc3cccc(C(F)(F)F)c3)nnnc12 [Compound 1, 4-(3-Trifluoromethyl-benzylamino)-benzo[d][1,2,3]triazine-8-carboxamide] | 101 to 500 | > 1000
2 | NC(=O)c1cccc2c(NCc3cccnc3)nnnc12 [Compound 3, 4-((pyridin-3-ylmethyl)amino)benzo[d][1,2,3]triazine-8-carboxamide] | > 1000 | > 1000
3 | NC(=O)c1cccc2c(NCc3ccc(Cl)c(C(F)(F)F)c3)nnnc12 [Compound 4, 4-((4-chloro-3-(trifluoromethyl)benzyl)amino)benzo[d][1,2,3]triazine-8-carboxamide] | < 25 | > 1000
4 | NC(=O)c1cccc2c(NCc3ccc(C(F)(F)F)cn3)nnnc12 [Compound 7, 4-(((5-(trifluoromethyl)pyridin-2-yl)methyl)amino)benzo[d][1,2,3]triazine-8-carboxamide] | > 1000 | > 1000
5 | NC(=O)c1cccc2c(NCc3ccc(C(F)(F)F)cc3)nnnc12 [Compound 8, 4-((4-(trifluoromethyl)benzyl)amino)benzo[d][1,2,3]triazine-8-carboxamide] | 25 to 100 | > 1000
6 | NC(=O)c1cccc2c(NCc3cccc(F)c3)nnnc12 [Compound 9, 4-((3-fluorobenzyl)amino)benzo[d][1,2,3]triazine-8-carboxamide] | 501 to 1000 | > 1000
7 | COc1cc([C@@H](CN2CCC2)Nc2nnnc3c(C(N)=O)cccc23)ccc1Cl [Compound 10, (S)-4-((2-(azetidin-1-yl)-1-(4-chloro-3-methoxyphenyl)ethyl)amino)-benzo[d][1,2,3]triazine-8-carboxamide] | < 25 | 101 to 500
8 | CN(C)C[C@@H](Nc1nnnc2c(C(N)=O)cccc12)c1ccc(Cl)c(C(F)(F)F)c1 [Compound 13, (S)-4-((1-(4-chloro-3-(trifluoromethyl)phenyl)-2-(dimethylamino)ethyl)amino)benzo-[d][1,2,3]triazine-8-carboxamide] | < 25 | < 25
9 | CN(C)C[C@@H](Nc1nnnc2c(C(N)=O)cccc12)c1ccc(Cl)c(Cl)c1 [Compound 15, (S)-4-((1-(3,4-dichlorophenyl)-2-(dimethylamino)ethyl)amino)benzo[d][1,2,3]triazine-8-carboxamide] | < 25 | < 25
10 | N#Cc1cc([C@@H](CN2CCC2)Nc2nnnc3c(C(N)=O)cccc23)ccc1Cl [Compound 18, (S)-4-((2-(azetidin-1-yl)-1-(4-chloro-3-cyanophenyl)ethyl)amino)benzo[d][1,2,3]triazine-8-carboxamide] | < 25 | 101 to 500
11 | NC(=O)c1cncc2c(N[C@@H](CN3CCC3)c3ccc(Cl)c(C(F)(F)F)c3)ncnc12 [Compound 19, (R)-4-((2-(azetidin-1-yl)-1-(4-chloro-3-(trifluoromethyl)phenyl)ethyl)amino)pyrido[4,3-d]pyrimidine-8-carboxamide] | > 1000 | > 1000
12 | NC(=O)c1cccc2c(NC3CNCCC3c3cccc(C(F)(F)F)c3)nnnc12 (stereo not shown) [Compound 21, 4-((4-(3-(trifluoromethyl)phenyl)piperidin-3-yl)amino)benzo[d][1,2,3]triazine-8-carboxamide] | < 25 | < 25
13 | NC(=O)c1ccnc2c(NC3CNCCC3c3ccc(F)c(Cl)c3)ncnc12 (stereo not shown) [Compound 23, 4-[4-(3-Chloro-4-fluoro-phenyl)-piperidin-3-ylamino]-pyrido[3,2-d]pyrimidine-8-carboxamide] | 25 to 100 | 101 to 500
14 | NC(=O)c1ccnc2c(NC3CNCCC3c3ccc(C(F)(F)F)cc3)ncnc12 (stereo not shown) [Compound 25, 4-((4-(4-(trifluoromethyl)phenyl)piperidin-3-yl)amino)pyrido[3,2-d]pyrimidine-8-carboxamide] | < 25 | 501 to 1000
15 | CNC[C@@H](Nc1ncnc2c(C(N)=O)ccnc12)c1ccc(C(F)(F)F)c(F)c1 [Compound 26, 4-[(S)-1-(3-Fluoro-4-trifluoromethyl-phenyl)-2-methylamino-ethylamino]-pyrido[3,2-d]pyrimidine-8-carboxylic Acid Amide] | < 25 | < 25

The next lines start with the values.

Row | IC50 (p70S6K (T412E mutant)) [nM] | IC50 (His-AKT (Full Length)) [nM] | SMILES
16 | < 25 | > 1000 | NC(=O)c1cccc2c(NCc3ccc(Cl)c(Cl)c3)nnnc12 [Compound 2, 4-((3,4-dichlorobenzyl)amino)benzo[d][1,2,3]triazine-8-carboxamide]
17 | > 1000 | > 1000 | NC(=O)c1cccc2c(NCc3ccccn3)nnnc12 [Compound 5, 4-((pyridin-2-ylmethyl)amino)benzo[d][1,2,3]triazine-8-carboxamide]
18 | 501 to 1000 | > 1000 | NC(=O)c1cccc2c(NCc3ccccc3)nnnc12 [Compound 6, 4-(benzylamino)benzo[d][1,2,3]triazine-8-carboxamide]
19 | 25 to 100 | 101 to 500 | COc1cc([C@@H](CN(C)C)Nc2nnnc3c(C(N)=O)cccc23)ccc1Cl [Compound 11, (S)-4-((1-(4-chloro-3-methoxyphenyl)-2-(dimethylamino)ethyl)amino)-benzo[d][1,2,3]triazine-8-carboxamide]
20 | < 25 | < 25 | NC(=O)c1cccc2c(N[C@H](CN3CCC3)c3ccc(F)c(C(F)(F)F)c3)nnnc12 [Compound 12, (S)-4-((2-(azetidin-1-yl)-1-(4-fluoro-3-(trifluoromethyl)phenyl)ethyl)amino)benzo[d][1,2,3]triazine-8-carboxamide]
21 | < 25 | < 25 | NC(=O)c1cccc2c(N[C@H](CN3CCC3)c3ccc(Cl)c(C(F)(F)F)c3)nnnc12 [Compound 14, (S)-4-((2-(azetidin-1-yl)-1-(4-chloro-3-(trifluoromethyl)phenyl)ethyl)amino)benzo[d][1,2,3]triazine-8-carboxamide]
22 | < 25 | < 25 | NC(=O)c1cccc2c(N[C@H](CN3CCC3)c3ccc(Cl)c(Cl)c3)nnnc12 [Compound 16, (S)-4-((2-(azetidin-1-yl)-1-(3,4-dichlorophenyl)ethyl)amino)benzo[d][1,2,3]triazine-8-carboxamide]
23 | 25 to 100 | 101 to 500 | CN(C)C[C@@H](Nc1nnnc2c(C(N)=O)cccc12)c1ccc(Cl)c(C#N)c1 [Compound 17, (S)-4-((1-(4-chloro-3-cyanophenyl)-2-(dimethylamino)ethyl)amino)-benzo[d][1,2,3]triazine-8-carboxamide]
24 | < 25 | 25 to 100 | NC(=O)c1cncc2c(N[C@H](CN3CCC3)c3ccc(Cl)c(C(F)(F)F)c3)ncnc12 [Compound 20, (S)-4-((2-(azetidin-1-yl)-1-(4-chloro-3-(trifluoromethyl)phenyl)ethyl)amino)pyrido[4,3-d]pyrimidine-8-carboxamide]
25 | < 25 | 101 to 500 | NC(=O)c1cccc2c(NC3CNCCC3c3ccc(C(F)(F)F)cc3)nnnc12 (stereo not shown) [Compound 22, 4-((4-(4-(trifluoromethyl)phenyl)piperidin-3-yl)amino)benzo[d][1,2,3]triazine-8-carboxamide]
26 | < 25 | 101 to 500 | NC(=O)c1ccnc2c(N[C@H](CN3CCC3)c3ccc(C(F)(F)F)cc3)ncnc12 [Compound 27, 4-[(S)-2-Azetidin-1-yl-1-(4-trifluoromethyl-phenyl)-ethylamino]-pyrido[3,2-d]pyrimidine-8-carboxylic Acid Amide]
27 |  | 25 to 100 | CCNC[C@@H](Nc1ncnc2c(C(N)=O)ccnc12)c1ccc(F)c(Br)c1 [Compound 30, 4-[(S)-1-(3-Bromo-4-fluoro-phenyl)-2-ethylamino-ethylamino]-pyrido[3,2-d]pyrimidine-8-carboxylic Acid Amide]
28 |  | 25 to 100 | CN(C)C[C@@H](Nc1ncnc2c(C(N)=O)ccnc12)c1ccc(Cl)c(F)c1 [Compound 53, 4-[(S)-1-(4-Chloro-3-fluoro-phenyl)-2-dimethylamino-ethylamino]-pyrido[3,2-d]pyrimidine-8-carboxylic Acid Amide]
29 |  | 25 to 100 | CCNC[C@@H](Nc1ncnc2c(C(N)=O)ccnc12)c1ccc(F)c(Cl)c1 [Compound 61, 4-[(S)-1-(3-Chloro-4-fluoro-phenyl)-2-ethylamino-ethylamino]-pyrido[3,2-d]pyrimidine-8-carboxylic Acid Amide]

— patent publication US9981925B2, “Substituted benzo[d][1,2,3]triazines as p70S6K inhibitors” (Merck Patent GmbH, priority 2012, dated 2018)
